Experimental data from ChEMBL document CHEMBL1275314, “Synthesis and biological evaluation of some 1,3,4-oxadiazole derivatives” (Eur J Med Chem, 2010).
In brackets after ≈: the same amount, converted by molar mass.

Assays:
Format in all cases: functional
Pseudomonas aeruginosa = experiment: Antibacterial activity against Pseudomonas aeruginosa ATCC 27853 after 3 to 4 days by serial plate dilution method
Klebsiella pneumoniae = experiment: Antibacterial activity against Klebsiella pneumoniae after 3 to 4 days by serial plate dilution method
Aspergillus flavus = experiment: Antifungal activity against Aspergillus flavus NCIM 524 after 3 to 4 days by serial plate dilution method
Aspergillus fumigatus = experiment: Antifungal activity against Aspergillus fumigatus NCIM 902 after 3 to 4 days by serial plate dilution method
Talaromyces marneffei = experiment: Antifungal activity against Penicillium marneffei after 3 to 4 days by serial plate dilution method
[1] = tested on: Trichophyton mentagrophytes; experiment: Antifungal activity against Trichophyton mentagrophytes after 3 to 4 days by serial plate dilution method
Rattus norvegicus = experiment: Antiinflammatory activity in Wister albino rat assessed as inhibition of carrageenan-induced paw edema at 10 mg/kg, po administered 30 mins before carrageenan treatment measured after 3 hrs by plethysmometric analysis
Escherichia coli = experiment: Antibacterial activity against Escherichia coli ATCC 25922 after 3 to 4 days by serial plate dilution method
Staphylococcus aureus = experiment: Antibacterial activity against Staphylococcus aureus ATCC 25923 after 3 to 4 days by serial plate dilution method
Mus musculus [2] = experiment: Analgesic activity in Swiss albino mouse assessed as inhibition of heat-induced paw licking or jumping behavior at 10 mg/kg, po administered after 15 sec of heat challenge measured after 30 mins post dose by Eddy's hot plate method; settings: 0.5 h
Mus musculus [3] = experiment: Analgesic activity in Swiss albino mouse assessed as inhibition of heat-induced paw licking or jumping behavior at 10 mg/kg, po administered after 15 sec of heat challenge measured after 60 mins post dose by Eddy's hot plate method; settings: 1 h
Mus musculus [4] = experiment: Analgesic activity in Swiss albino mouse assessed as inhibition of heat-induced paw licking or jumping behavior at 10 mg/kg, po administered after 15 sec of heat challenge measured after 90 mins post dose by Eddy's hot plate method; settings: 1.5 h

Structure (SMILES)	MIC (Pseudomonas aeruginosa) [µg/mL]	MIC (Klebsiella pneumoniae) [µg/mL]	MIC (Aspergillus flavus) [µg/mL]	MIC (Aspergillus fumigatus) [µg/mL]	MIC (Talaromyces marneffei) [µg/mL]	MIC [1] [µg/mL]	inhibition in vivo at 10 mg/kg (Rattus norvegicus) [%]	MIC (Escherichia coli) [µg/mL]	MIC (Staphylococcus aureus) [µg/mL]	inhibition in vivo at 10 mg/kg (Mus musculus [2]) [%]	inhibition in vivo at 10 mg/kg (Mus musculus [3]) [%]	inhibition in vivo at 10 mg/kg (Mus musculus [4]) [%]
CC(C)Cc1ccc(C(C)c2nn(CN3CCN(c4cccc(Cl)c4)CC3)c(=S)o2)cc1 (configuration not stated)	25 (≈ 53.1 µM)	25 (≈ 53.1 µM)	6.25 (≈ 13.3 µM)	6.25 (≈ 13.3 µM)	6.25 (≈ 13.3 µM)	6.25 (≈ 13.3 µM)	64.3	25 (≈ 53.1 µM)	25 (≈ 53.1 µM)			
CC(C)Cc1ccc(C(C)c2nn(CN3CCN(c4ccc([N+](=O)[O-])cc4)CC3)c(=S)o2)cc1 (configuration not stated)	12.5 (≈ 26 µM)	12.5 (≈ 26 µM)	25 (≈ 51.9 µM)	25 (≈ 51.9 µM)	25 (≈ 51.9 µM)	25 (≈ 51.9 µM)	75.1	12.5 (≈ 26 µM)	12.5 (≈ 26 µM)	30.6	36.2	44.8
CC(C)Cc1ccc(C(C)c2nn(CN3CCN(c4ccc(F)cc4)CC3)c(=S)o2)cc1 (configuration not stated)	6.25 (≈ 13.7 µM)	6.25 (≈ 13.7 µM)	6.25 (≈ 13.7 µM)	6.25 (≈ 13.7 µM)	6.25 (≈ 13.7 µM)	6.25 (≈ 13.7 µM)	75.4	6.25 (≈ 13.7 µM)	6.25 (≈ 13.7 µM)	32.6	45	57
CCOc1ccccc1N1CCN(Cn2nc(C(C)c3ccc(CC(C)C)cc3)oc2=S)CC1 (configuration not stated)	25 (≈ 52 µM)	25 (≈ 52 µM)	12.5 (≈ 26 µM)	12.5 (≈ 26 µM)	12.5 (≈ 26 µM)	12.5 (≈ 26 µM)	44.6	25 (≈ 52 µM)	25 (≈ 52 µM)			
COc1ccc(N2CCN(Cn3nc(Cc4ccc(SC)cc4)oc3=S)CC2)cc1	12.5 (≈ 28.2 µM)	12.5 (≈ 28.2 µM)	12.5 (≈ 28.2 µM)	12.5 (≈ 28.2 µM)	12.5 (≈ 28.2 µM)	12.5 (≈ 28.2 µM)	33.7	12.5 (≈ 28.2 µM)	12.5 (≈ 28.2 µM)			
CSc1ccc(Cc2nn(CN3CCN(c4ccc(Cl)cc4)CC3)c(=S)o2)cc1	6.25 (≈ 14 µM)	6.25 (≈ 14 µM)	6.25 (≈ 14 µM)	6.25 (≈ 14 µM)	6.25 (≈ 14 µM)	6.25 (≈ 14 µM)	71.1	6.25 (≈ 14 µM)	6.25 (≈ 14 µM)			
CSc1ccc(Cc2nn(CN3CCN(c4cccc(Cl)c4)CC3)c(=S)o2)cc1	12.5 (≈ 28 µM)	12.5 (≈ 28 µM)	12.5 (≈ 28 µM)	12.5 (≈ 28 µM)	12.5 (≈ 28 µM)	12.5 (≈ 28 µM)	74.7	12.5 (≈ 28 µM)	12.5 (≈ 28 µM)	25.6	32	41.2
CSc1ccc(Cc2nn(CN3CCN(c4ccc([N+](=O)[O-])cc4)CC3)c(=S)o2)cc1	6.25 (≈ 13.7 µM)	6.25 (≈ 13.7 µM)	25 (≈ 54.6 µM)	25 (≈ 54.6 µM)	25 (≈ 54.6 µM)	25 (≈ 54.6 µM)	56.6	6.25 (≈ 13.7 µM)	6.25 (≈ 13.7 µM)			
CSc1ccc(Cc2nn(CN3CCN(c4ccc(F)cc4)CC3)c(=S)o2)cc1	6.25 (≈ 14.5 µM)	6.25 (≈ 14.5 µM)	6.25 (≈ 14.5 µM)	6.25 (≈ 14.5 µM)	6.25 (≈ 14.5 µM)	6.25 (≈ 14.5 µM)	68.7	6.25 (≈ 14.5 µM)	6.25 (≈ 14.5 µM)			
CCOc1ccccc1N1CCN(Cn2nc(Cc3ccc(SC)cc3)oc2=S)CC1	12.5 (≈ 27.4 µM)	12.5 (≈ 27.4 µM)	12.5 (≈ 27.4 µM)	12.5 (≈ 27.4 µM)	12.5 (≈ 27.4 µM)	12.5 (≈ 27.4 µM)	42.5	12.5 (≈ 27.4 µM)	12.5 (≈ 27.4 µM)			
CC(C)Cc1ccc(C(C)c2nn(CN3CCNCC3)c(=S)o2)cc1 (configuration not stated)	12.5 (≈ 34.7 µM)	12.5 (≈ 34.7 µM)	12.5 (≈ 34.7 µM)	12.5 (≈ 34.7 µM)	12.5 (≈ 34.7 µM)	12.5 (≈ 34.7 µM)		12.5 (≈ 34.7 µM)	12.5 (≈ 34.7 µM)			
CC(C)Cc1ccc(C(C)c2nn(CN3CCN(C)CC3)c(=S)o2)cc1 (configuration not stated)	12.5 (≈ 33.4 µM)	12.5 (≈ 33.4 µM)	25 (≈ 66.7 µM)	25 (≈ 66.7 µM)	25 (≈ 66.7 µM)	25 (≈ 66.7 µM)		12.5 (≈ 33.4 µM)	12.5 (≈ 33.4 µM)			
CC(C)Cc1ccc(C(C)c2nn(CN3CCCCC3)c(=S)o2)cc1 (configuration not stated)	25 (≈ 69.5 µM)	25 (≈ 69.5 µM)	25 (≈ 69.5 µM)	25 (≈ 69.5 µM)	25 (≈ 69.5 µM)	25 (≈ 69.5 µM)		25 (≈ 69.5 µM)	25 (≈ 69.5 µM)			
CCOC(=O)C1CCN(Cn2nc(C(C)c3ccc(CC(C)C)cc3)oc2=S)CC1 (configuration not stated)	12.5 (≈ 29 µM)	12.5 (≈ 29 µM)	12.5 (≈ 29 µM)	12.5 (≈ 29 µM)	12.5 (≈ 29 µM)	12.5 (≈ 29 µM)	73.9	12.5 (≈ 29 µM)	12.5 (≈ 29 µM)	30.6	41.8	55.2
CC(C)Cc1ccc(C(C)c2nn(CN3CCOCC3)c(=S)o2)cc1 (configuration not stated)	6.25 (≈ 17.3 µM)	6.25 (≈ 17.3 µM)	6.25 (≈ 17.3 µM)	6.25 (≈ 17.3 µM)	6.25 (≈ 17.3 µM)	6.25 (≈ 17.3 µM)	69.5	6.25 (≈ 17.3 µM)	6.25 (≈ 17.3 µM)			
CCOC(=O)C1CCN(Cn2nc(Cc3ccc(SC)cc3)oc2=S)CC1	12.5 (≈ 30.7 µM)	12.5 (≈ 30.7 µM)	12.5 (≈ 30.7 µM)	12.5 (≈ 30.7 µM)	12.5 (≈ 30.7 µM)	12.5 (≈ 30.7 µM)	57.4	12.5 (≈ 30.7 µM)	12.5 (≈ 30.7 µM)			
CSc1ccc(Cc2nn(CN3CCOCC3)c(=S)o2)cc1	12.5 (≈ 37 µM)	12.5 (≈ 37 µM)	6.25 (≈ 18.5 µM)	6.25 (≈ 18.5 µM)	6.25 (≈ 18.5 µM)	6.25 (≈ 18.5 µM)	35.2	12.5 (≈ 37 µM)	12.5 (≈ 37 µM)			
CSc1ccc(Cc2nn(CN3CCNCC3)c(=S)o2)cc1	12.5 (≈ 37.1 µM)	12.5 (≈ 37.1 µM)	12.5 (≈ 37.1 µM)	12.5 (≈ 37.1 µM)	12.5 (≈ 37.1 µM)	12.5 (≈ 37.1 µM)		12.5 (≈ 37.1 µM)	12.5 (≈ 37.1 µM)			
CSc1ccc(Cc2nn(CN3CCN(C)CC3)c(=S)o2)cc1	12.5 (≈ 35.7 µM)	12.5 (≈ 35.7 µM)	25 (≈ 71.3 µM)	25 (≈ 71.3 µM)	25 (≈ 71.3 µM)	25 (≈ 71.3 µM)		12.5 (≈ 35.7 µM)	12.5 (≈ 35.7 µM)			
CSc1ccc(Cc2nn(CN3CCCCC3)c(=S)o2)cc1	12.5 (≈ 37.3 µM)	12.5 (≈ 37.3 µM)	25 (≈ 74.5 µM)	25 (≈ 74.5 µM)	25 (≈ 74.5 µM)	25 (≈ 74.5 µM)		12.5 (≈ 37.3 µM)	12.5 (≈ 37.3 µM)			
COc1ccc(N2CCN(Cn3nc(C(C)c4ccc(CC(C)C)cc4)oc3=S)CC2)cc1 (configuration not stated)	6.25 (≈ 13.4 µM)	6.25 (≈ 13.4 µM)	12.5 (≈ 26.8 µM)	12.5 (≈ 26.8 µM)	12.5 (≈ 26.8 µM)	12.5 (≈ 26.8 µM)	42.6	6.25 (≈ 13.4 µM)	6.25 (≈ 13.4 µM)			
CC(C)Cc1ccc(C(C)c2nn(CN3CCN(c4ccc(Cl)cc4)CC3)c(=S)o2)cc1 (configuration not stated)	12.5 (≈ 26.5 µM)	12.5 (≈ 26.5 µM)	12.5 (≈ 26.5 µM)	12.5 (≈ 26.5 µM)	12.5 (≈ 26.5 µM)	12.5 (≈ 26.5 µM)	76.6	12.5 (≈ 26.5 µM)	12.5 (≈ 26.5 µM)	22.8	28	35.8
Cc1cc(C2CCCCC2)n(O)c(=O)c1.NCCO [CICLOPIROX OLAMINE]			6.25	6.25	1.56	6.25						
O=C(O)c1cn(C2CC2)c2cc(N3CCNCC3)c(F)cc2c1=O [CIPROFLOXACIN]		6.25 (≈ 18.9 µM)							1.56 (≈ 4.71 µM)			
O=C(O)Cc1ccccc1Nc1c(Cl)cccc1Cl [DICLOFENAC SODIUM]							73.7			29.2	40.8	53.6
